From PubChem BioAssay AID1919000 (Molecular Pharmacology Branch, DTP, NCI, 2023)
“And” between values parts separate entries of the source, which are not always exact repeats. Equal entries are not always repeated.

System: 653999-131-R-J2-PDC complex spheroids, growth % test/control
Test: Anticancer human tumor 653999-131-R-J2-PDC patient-derived lung adenocarcinoma cell line growth inhibition [AhR]
Settings: for viability, T/C: stronger effect = lower value
Text: Multicellular complex tumor spheroid response to aryl hydrocarbon receptor antagonists in combination with a variety of drugs and investigational agents in selected tumor cell lines
The current study was undertaken to assess response to aryl hydrocarbon receptor antagonists in combination with standard-of-care drugs and investigational agents in solid tumor complex spheroid models. Complex spheroids include a stromal component modeled by human endothelial cells (HUVEC) and fibroblasts modeled by human mesenchymal stem cells (MSCs). The concentration ranges selected for each drug and investigational agent were based upon clinically achievable concentrations if the clinical Cmax of the agent was known.
Compounds. The drugs and investigational agents: BAY 2416964 (NSC825713), GNF351 (NSC835774), CH-223191 (NSC835775), CPI-455 (NSC825282), aza-TdCyd (NSC777586), decitabine (NSC127716), belinostat (NSC758774), entinostat (NSC756642), pevonedistat (NSC761192), tazemetostat (NSC777109), talazoparib (NSC765396), olaparib (NSC753686), selinexor (NSC780203), nedisertib (M3814, NSC802822), bortezomib (NSC756655), venetoclax (NSC766270), doxorubicin (NSC123127), elimusertib (BAY189344, NSC800525), ceralasertib (AZD6738, NSC777638), TAK-243 (NSC785004), alisertib (NSC759677), etoposide (NSC141540), topotecan (NSC609699), eribulin (NSC707389), gemcitabine (NSC613327), carboplatin (NSC241240), cisplatin (NSC119875), and SN-38 (NSC673596) were obtained from the National Cancer Institute (NCI) Developmental Therapeutics Program Chemical Repository (32). The FDA-approved anticancer drug set is available from the Developmental Therapeutics Program at https://dtp.cancer.gov/organization/dscb/obtaining/available plates.htm. […] The stock solutions were prepared in dimethyl sulfoxide (DMSO, Sigma-Aldrich, St. Louis, MO, cat. D2650), except for the platinum compounds which were prepared in saline (Quality Biological, Gaithersburg, MD, cat. 114-055-101), at 800-fold the tested concentration and stored at -70 degrees C prior to their use. All drugs and investigational agents were tested over a range starting from a high concentration at or near the clinical Cmax and decreasing in half-log increments. If the clinical Cmax for an agent had not been determined, the highest concentration tested was 10 microM (Table 1).
Cell Culture. All cells were maintained in an incubator at 37 degrees C and 5% CO2 with 95% humidity. The PDC lines were cultured according to standard operating procedures established by the NCI PDMR (https://pdmr.cancer.gov). Briefly, all PDCs were thawed and cultured in Matrigel-coated flasks prepared with a working solution of 1X Ham's F-12 nutrient mix, without supplementation (Invitrogen, Waltham, MA, cat. 11765054), 100 U/mL penicillin-streptomycin (Invitrogen, cat. 15140122), and 2.5% Matrigel (Corning Inc., Corning, NY, cat. 354248) for the first three passages. All PDCs were cultured in complete DMEM/F-12 media containing advanced DMEM/F-12 (Invitrogen, cat. 12634028), 4.9% defined fetal bovine serum, heat inactivated (HyClone Laboratories Inc., Logan, UT, cat. SH30070.03HI), 389 ng/mL hydrocortisone (Sigma-Aldrich, cat. H4001), 9.7 ng/mL human EGF recombinant protein (Invitrogen, cat. PHG0313), 23.4 microg/mL adenine (Sigma-Aldrich, cat. A2786), 97.3 U/mL penicillin-streptomycin (Invitrogen, cat. 15140122), 1.9 mM L-glutamine (Invitrogen, cat. 25030081), and 9.7 microM Y-27632 dihydrochloride (Tocris Bioscience, Bristol, United Kingdom, cat. 1254). The PDCs were cultured in complete DMEM/F12 media without 10 microM Y-27632 dihydrochloride for at least two passages prior to the screen. The established cell lines NCI-H1341 and […] were cultured in DMEM/F-12, HEPES (Invitrogen, cat. 11330032), 5% defined fetal bovine serum (HyClone Laboratories Inc., cat. SH30070.03), ITS premix universal culture supplement [insulin (5 microg/mL), transferrin (5 microg/mL), and selenious acid (5 ng/mL)] […]

[1] = curve of first compound, second compound 0.1 µM
[2] = curve of first compound, second compound 0.316 µM
[3] = curve of first compound, second compound 1 µM
[4] = curve of first compound, second compound 3.16 µM
[5] = curve of first compound, second compound 10 µM
[6] = second compound 0.1 µM, first compound 0.0316 µM
[7] = second compound 0.1 µM, first compound 0.1 µM
[8] = second compound 0.1 µM, first compound 0.316 µM
[9] = second compound 0.1 µM, first compound 1 µM
[10] = second compound 0.1 µM, first compound 3.16 µM
[11] = second compound 0.1 µM, first compound 10 µM
[12] = second compound 0.316 µM, first compound 0.0316 µM
[13] = second compound 0.316 µM, first compound 0.1 µM
[14] = second compound 0.316 µM, first compound 0.316 µM
[15] = second compound 0.316 µM, first compound 1 µM
[16] = second compound 0.316 µM, first compound 3.16 µM
[17] = second compound 0.316 µM, first compound 10 µM
[18] = second compound 1 µM, first compound 0.0316 µM
[19] = second compound 1 µM, first compound 0.1 µM
[20] = second compound 1 µM, first compound 0.316 µM
[21] = second compound 1 µM, first compound 1 µM
[22] = second compound 1 µM, first compound 3.16 µM
[23] = second compound 1 µM, first compound 10 µM
[24] = second compound 3.16 µM, first compound 0.0316 µM
[25] = second compound 3.16 µM, first compound 0.1 µM
[26] = second compound 3.16 µM, first compound 0.316 µM
[27] = second compound 3.16 µM, first compound 1 µM
[28] = second compound 3.16 µM, first compound 3.16 µM
[29] = second compound 3.16 µM, first compound 10 µM
[30] = second compound 10 µM, first compound 0.0316 µM
[31] = second compound 10 µM, first compound 0.1 µM
[32] = second compound 10 µM, first compound 0.316 µM
[33] = second compound 10 µM, first compound 1 µM
[34] = second compound 10 µM, first compound 3.16 µM
[35] = second compound 10 µM, first compound 10 µM
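Further: spheroids exposed to agents for seven days.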

SMILES | IC50 [1] | IC50 [2] | IC50 [3] | IC50 [4] | IC50 [5] | viability, T/C [6] | viability, T/C [7] | viability, T/C [8] | viability, T/C [9] | viability, T/C [10] | viability, T/C [11] | viability, T/C [12] | viability, T/C [13] | viability, T/C [14] | viability, T/C [15] | viability, T/C [16] | viability, T/C [17] | viability, T/C [18] | viability, T/C [19] | viability, T/C [20] | also measured
NS(=O)(=O)OCC1CC(n2ccc3c(NC4CCc5ccccc54)ncnc32)CC1O (centres undefined) + Cc1ccccc1N=Nc1ccc(NC(=O)c2ccnn2C)c(C)c1 | > 10 µM | > 10 µM | > 10 µM | > 10 µM | > 10 µM | 111% | 120% | 118% | 124% | 88.9% | 64.7% | 114% | 105% | 123% | 129% | 72.7% | 61.3% | 115% | 119% | 124% | viability, T/C [21]: 124%; viability, T/C [22]: 63.3%; viability, T/C [23]: 61.4%; viability, T/C [24]: 125%; viability, T/C [25]: 109%; viability, T/C [26]: 142%; viability, T/C [27]: 93.4%; viability, T/C [28]: 61.8%; viability, T/C [29]: 62.3%; viability, T/C [30]: 129%; viability, T/C [31]: 118%; viability, T/C [32]: 115%; viability, T/C [33]: 63.7%; viability, T/C [34]: 56.7%; viability, T/C [35]: 60%
CC1(C)CCC(CN2CCN(c3ccc(C(=O)NS(=O)(=O)c4ccc(NCC5CCOCC5)c([N+](=O)[O-])c4)c(Oc4cnc5[nH]ccc5c4)c3)CC2)=C(c2ccc(Cl)cc2)C1 + CC(CO)NC(=O)c1cc(-c2ccc(Cl)cc2)nn(-c2cnn(C)c2)c1=O | > 10 µM | > 10 µM | > 10 µM | > 10 µM | > 10 µM | 105% | 101% | 99.6% | 94.1% | 108% | 71.2% | 98% | 101% | 103% | 89.8% | 94% | 71% | 90.8% | 104% | 107% | viability, T/C [21]: 98.4%; viability, T/C [22]: 103%; viability, T/C [23]: 80.3%; viability, T/C [24]: 96.2%; viability, T/C [25]: 101%; viability, T/C [26]: 106%; viability, T/C [27]: 108%; viability, T/C [28]: 95.3%; viability, T/C [29]: 75.1%; viability, T/C [30]: 99%; viability, T/C [31]: 107%; viability, T/C [32]: 111%; viability, T/C [33]: 105%; viability, T/C [34]: 92.5%; viability, T/C [35]: 74.5%
COc1cccc2c1C(=O)c1c(O)c3c(c(O)c1C2=O)CC(O)(C(=O)CO)CC3OC1CC(N)C(O)C(C)O1 (centres undefined) + Cc1ccccc1N=Nc1ccc(NC(=O)c2ccnn2C)c(C)c1 | < 0.0316 µM | < 0.0316 µM | < 0.0316 µM | 0.0959 µM | 0.129 µM | 50.3% | 44.6% | 25.8% | 9.24% | 5.33% | 16.6% | 50.5% | 40.8% | 29.3% | 9.21% | 4.48% | 17.2% | 48.8% | 44% | 28.6% | viability, T/C [21]: 10.4%; viability, T/C [22]: 8.05%; viability, T/C [23]: 19.6%; viability, T/C [24]: 55.6%; viability, T/C [25]: 47%; viability, T/C [26]: 32.6%; viability, T/C [27]: 12.3%; viability, T/C [28]: 11.6%; viability, T/C [29]: 19.2%; viability, T/C [30]: 60.5%; viability, T/C [31]: 51%; viability, T/C [32]: 37.2%; viability, T/C [33]: 16.3%; viability, T/C [34]: 8.54%; viability, T/C [35]: 22.5%
CCN(c1cc(-c2ccc(CN3CCOCC3)cc2)cc(C(=O)NCc2c(C)cc(C)[nH]c2=O)c1C)C1CCOCC1 |  |  |  |  |  |  |  |  |  |  |  |  |  |  |  |  |  |  |  |  | viability, T/C (compound 0.00949 µM): 105% and 101% and 115%; viability, T/C (compound 0.03 µM): 104% and 95.7% and 106%; viability, T/C (compound 0.0949 µM): 114% and 88.5% and 110%; viability, T/C (compound 0.3 µM): 102% and 89.3% and 100%; viability, T/C (compound 0.949 µM): 108% and 98.8% and 96.9%; viability, T/C (compound 3 µM): 94.6% and 104% and 96.3%; IC50 (curve of compound): > 3 µM
O=C(C=Cc1cccc(S(=O)(=O)Nc2ccccc2)c1)NO |  |  |  |  |  |  |  |  |  |  |  |  |  |  |  |  |  |  |  |  | viability, T/C (compound 0.0316 µM): 91.5% and 94.1% and 91.6%; viability, T/C (compound 0.1 µM): 92.4% and 95.9% and 101%; viability, T/C (compound 0.316 µM): 82.2% and 91.9% and 96.7%; viability, T/C (compound 1 µM): 77% and 86.9% and 80.2%; viability, T/C (compound 3.16 µM): 52.3% and 62.5% and 55.9%; viability, T/C (compound 10 µM): 14.8% and 11.4% and 7.09%; IC50 (curve of compound): 3.45 µM and 4.2 µM and 3.56 µM
